Laboratory results: patent US10172830B2, “Pyrazolone compounds having human neutrophil elastase inhibitory properties” (CHIESI FARMACEUTICI S.P.A., priority 2016, dated 2019)

Target: T1, human neutrophil elastase (HNE) (Homo sapiens, UniProt P08246)
T1 construct: purchased Sigma E8140
T1 sequence (P08246 30-247 limits assumed): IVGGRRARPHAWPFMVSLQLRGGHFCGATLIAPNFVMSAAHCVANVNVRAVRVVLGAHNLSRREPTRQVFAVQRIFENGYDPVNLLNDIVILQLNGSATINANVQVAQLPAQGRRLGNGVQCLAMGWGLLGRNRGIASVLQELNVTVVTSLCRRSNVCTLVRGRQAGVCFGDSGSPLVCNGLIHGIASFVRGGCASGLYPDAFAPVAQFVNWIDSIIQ
Assay: HNE enzyme assay (human neutrophil elastase enzyme activity assay)
Format: biochemical
Settings: human leukocyte elastase 0.00072 U/mL; substrate MeOSuc-Ala-Ala-Pro-Val-AMC 100 μM; 25° C. for 30 minutes; at least two separate experiments; read-out: HNE inhibition (HNE enzyme inhibition, IC50 values)
Method: Compounds of the present invention were tested for potency in a human neutrophil elastase (HNE) enzyme activity assay.
Assays were performed in 96-well plates in a total assay volume of 100 μL. The final concentration of elastase enzyme (human leukocyte elastase, Sigma E8140) was 0.00072 U/mL. The peptide substrate (MeOSuc-Ala-Ala-Pro-Val-AMC, Calbiochem #324740) was used at a final concentration of 100 μM. The final concentration of DMSO was 1% in the assay buffer (0.05M Tris.HCl, 0.1M NaCl, 0.1M CaCl2, 0.0005% brij-35, pH 7.5). The enzymatic reaction was started by addition of the enzyme and incubated at 25° C. for 30 minutes. After incubation, the reaction was stopped by addition of soybean trypsin inhibitor (Sigma T9003) at a final concentration of 50 μg/well. Fluorescence was measured using a Molecular Devices fluorescence plate reader using 380 nm excitation and 460 nm emission wavelengths.
A dose response to each compound was performed and the effect of compound in each experiment was expressed as a percentage inhibition of the control enzyme fluorescence. Dose response curves were plotted and compound potency (IC50) was determined. Compounds were tested in at least two separate experiments.

| Structure (SMILES) | IC50 [nM] |
| --- | --- |
| CCOC(=O)c1c(-c2ccnn2-c2ccc(C#N)cc2)n(C)n(-c2cccc(C(F)(F)F)c2)c1=O [Example 1, 2′-(4-Cyano-phenyl)-2-methyl-5-oxo-1-(3-trifluoromethyl-phenyl)-2,5-dihydro-1H,2′H-[3,3′]bipyrazolyl-4-carboxylic acid ethyl ester] | < 1 |
| CN1CCC(NC(=O)c2c(-c3ccnn3-c3ccc(C#N)cc3)n(C)n(-c3cccc(C(F)(F)F)c3)c2=O)CC1 [Example 2, 2′-(4-Cyano-phenyl)-2-methyl-5-oxo-1-(3-trifluoromethyl-phenyl)-2,5-dihydro-1H,2′H-[3,3′]bipyrazolyl-4-carboxylic acid (1-methyl-piperidin-4-yl)-amide] | 1 to 10 |
| CCNC(=O)c1c(-c2ccnn2-c2ccc(C#N)cc2)n(C)n(-c2cccc(C(F)(F)F)c2)c1=O [Example 3, 2′-(4-Cyano-phenyl)-2-methyl-5-oxo-1-(3-trifluoromethyl-phenyl)-2,5-dihydro-1H,2′H-[3,3′]bipyrazolyl-4-carboxylic acid ethylamide] | < 1 |
| Cn1c(-c2ccnn2-c2ccc(C#N)cc2)c(C(=O)N[C@@H]2C[C@@H]3CN(C(=O)OC(C)(C)C)C[C@@H]3C2)c(=O)n1-c1cccc(C(F)(F)F)c1 [Example 4, (3aS,5R,6aR)-5-{[2′-(4-Cyano-phenyl)-2-methyl-5-oxo-1-(3-trifluoromethyl-phenyl)-2,5-dihydro-1H,2′H-[3,3′]bipyrazolyl-4-carbonyl]-amino}-hexahydro-cyclopenta[c]pyrrole-2-carboxylic acid tert-butyl ester] | < 1 |
| C[C@H](NC(=O)c1c(-c2ccnn2-c2ccc(C#N)cc2)n(C)n(-c2cccc(C(F)(F)F)c2)c1=O)c1ncc(CN(C)C)o1 [Example 5, 2′-(4-Cyano-phenyl)-2-methyl-5-oxo-1-(3-trifluoromethyl-phenyl)-2,5-dihydro-1H,2′H-[3,3′]bipyrazolyl-4-carboxylic acid [(S)-1-(5-dimethylaminomethyl-oxazol-2-yl)-ethyl]-amide] | < 1 |
| CN(C)CC(=O)N1CCC(NC(=O)c2c(-c3ccnn3-c3ccc(C#N)cc3)n(C)n(-c3cccc(C(F)(F)F)c3)c2=O)CC1 [Example 6, 2′-(4-Cyano-phenyl)-2-methyl-5-oxo-1-(3-trifluoromethyl-phenyl)-2,5-dihydro-1H,2′H-[3,3′]bipyrazolyl-4-carboxylic acid [1-(2-dimethylamino-acetyl)-piperidin-4-yl]-amide] | < 1 |
| C[C@H](NC(=O)c1c(-c2ccnn2-c2ccc(C#N)cc2)n(C)n(-c2cccc(C(F)(F)F)c2)c1=O)C(=O)N(C)CC1CCN(C)CC1 [Example 7, 2′-(4-Cyano-phenyl)-2-methyl-5-oxo-1-(3-trifluoromethyl-phenyl)-2,5-dihydro-1H,2′H-[3,3′]bipyrazolyl-4-carboxylic acid {(S)-1-[methyl-(1-methyl-piperidin-4-ylmethyl)-carbamoyl]-ethyl}-amide] | < 1 |
| C[C@H](NC(=O)c1c(-c2ccnn2-c2ccc(C#N)cc2)n(C)n(-c2cccc(C(F)(F)F)c2)c1=O)c1nnc(CN(C)C)o1 [Example 8, 2′-(4-Cyano-phenyl)-2-methyl-5-oxo-1-(3-trifluoromethyl-phenyl)-2,5-dihydro-1H,2′H-[3,3′]bipyrazolyl-4-carboxylic acid [(S)-1-(5-dimethylaminomethyl-[1,3,4]oxadiazol-2-yl)-ethyl]-amide] | < 1 |
| CN1CCC(CN(C)C(=O)C(C)(C)NC(=O)c2c(-c3ccnn3-c3ccc(C#N)cc3)n(C)n(-c3cccc(C(F)(F)F)c3)c2=O)CC1 [Example 9, 2′-(4-Cyano-phenyl)-2-methyl-5-oxo-1-(3-trifluoromethyl-phenyl)-2,5-dihydro-1H,2′H-[3,3′]bipyrazolyl-4-carboxylic acid {1-methyl-1-[methyl-(1-methyl-piperidin-4-ylmethyl)-carbamoyl]-ethyl}-amide] | < 1 |
| CN(C)Cc1cnc(C(C)(C)NC(=O)c2c(-c3ccnn3-c3ccc(C#N)cc3)n(C)n(-c3cccc(C(F)(F)F)c3)c2=O)o1 [Example 10, 2′-(4-Cyano-phenyl)-2-methyl-5-oxo-1-(3-trifluoromethyl-phenyl)-2,5-dihydro-1H,2′H-[3,3′]bipyrazolyl-4-carboxylic acid [1-(5-dimethylaminomethyl-oxazol-2-yl)-1-methyl-ethyl]-amide] | < 1 |
| CC(C)[C@H](NC(=O)c1c(-c2ccnn2-c2ccc(C#N)cc2)n(C)n(-c2cccc(C(F)(F)F)c2)c1=O)c1ncc(CN(C)C)o1 [Example 11, 2′-(4-Cyano-phenyl)-2-methyl-5-oxo-1-(3-trifluoromethyl-phenyl)-2,5-dihydro-1H,2′H-[3,3′]bipyrazolyl-4-carboxylic acid [(S)-1-(5-dimethylaminomethyl-oxazol-2-yl)-2-methyl-propyl]-amide] | < 1 |
| CN1CCC(NC(=O)[C@H]2CC[C@H](NC(=O)c3c(-c4ccnn4-c4ccc(C#N)cc4)n(C)n(-c4cccc(C(F)(F)F)c4)c3=O)CC2)CC1 [Example 12, 2′-(Trans-4-cyano-phenyl)-2-methyl-5-oxo-1-(3-trifluoromethyl-phenyl)-2,5-dihydro-1H,2′H-[3,3′]bipyrazolyl-4-carboxylic acid [4-(1-methyl-piperidin-4-ylcarbamoyl)-cyclohexyl]-amide] | < 1 |
| CN1CCC(OC(=O)[C@H]2CC[C@H](NC(=O)c3c(-c4ccnn4-c4ccc(C#N)cc4)n(C)n(-c4cccc(C(F)(F)F)c4)c3=O)CC2)CC1 [Example 13, Trans-4-{[2′-(4-cyano-phenyl)-2-methyl-5-oxo-1-(3-trifluoromethyl-phenyl)-2,5-dihydro-1H,2′H-[3,3′]bipyrazolyl-4-carbonyl]-amino}-cyclohexanecarboxylic acid 1-methyl-piperidin-4-yl ester] | < 1 |
| CN(C)C1CCN(C(=O)[C@H]2CC[C@H](NC(=O)c3c(-c4ccnn4-c4ccc(C#N)cc4)n(C)n(-c4cccc(C(F)(F)F)c4)c3=O)CC2)CC1 [Example 14, 2′-(Trans-4-cyano-phenyl)-2-methyl-5-oxo-1-(3-trifluoromethyl-phenyl)-2,5-dihydro-1H,2′H-[3,3′]bipyrazolyl-4-carboxylic acid [4-(4-dimethylamino-piperidine-1-carbonyl)-cyclohexyl]-amide] | < 1 |
| CN(C)CCOC(=O)[C@H]1CC[C@H](NC(=O)c2c(-c3ccnn3-c3ccc(C#N)cc3)n(C)n(-c3cccc(C(F)(F)F)c3)c2=O)CC1 [Example 15, Trans-4-{[2′-(4-cyano-phenyl)-2-methyl-5-oxo-1-(3-trifluoromethyl-phenyl)-2,5-dihydro-1H,2′H-[3,3′]bipyrazolyl-4-carbonyl]-amino}-cyclohexanecarboxylic acid 2-dimethylamino-ethyl ester] | < 1 |
| CN(C)CC(=O)O[C@H]1CC[C@H](NC(=O)c2c(-c3ccnn3-c3ccc(C#N)cc3)n(C)n(-c3cccc(C(F)(F)F)c3)c2=O)CC1 [Example 16, Dimethylamino-acetic acid trans-4-{[2′-(4-cyano-phenyl)-2-methyl-5-oxo-1-(3-trifluoromethyl-phenyl)-2,5-dihydro-1H,2′H-[3,3′]bipyrazolyl-4-carbonyl]-amino}-cyclohexyl ester] | < 1 |
